Legend:
Test in all cases: relative viability (nuclei count vs DMSO), 5 days (fraction); higher = more cells survive
Avagacestat + Decitabine = compound: NC(=O)[C@@H](CCC(F)(F)F)N(Cc1ccc(-c2ncon2)cc1F)S(=O)(=O)c1ccc(Cl)cc1 [Avagacestat] + Nc1ncn([C@H]2C[C@H](O)[C@@H](CO)O2)c(=O)n1 [Decitabine] (partner 2 µM)
In short: (§1)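 One day after seeding in 1536-well plates, lung cancer cell lines were dosed by pin tool. Dosing was either single-drug or a fixed anchor-drug dose plus five library-drug doses (not always all listed) in √10 steps. After 5 days, nuclei were stained in one fix-and-stain step and counted on 4× images, and relative viability is the nuclei count of treated wells over that of vehicle wells, given as the median of duplicate plates.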

Avagacestat + Olaparib = compound: NC(=O)[C@@H](CCC(F)(F)F)N(Cc1ccc(-c2ncon2)cc1F)S(=O)(=O)c1ccc(Cl)cc1 [Avagacestat] + O=C(c1cc(Cc2n[nH]c(=O)c3ccccc23)ccc1F)N1CCN(C(=O)C2CC2)CC1 [Olaparib] (partner 8 µM)
In short: as §1

Avagacestat + Luminespib = compound: NC(=O)[C@@H](CCC(F)(F)F)N(Cc1ccc(-c2ncon2)cc1F)S(=O)(=O)c1ccc(Cl)cc1 [Avagacestat] + CCNC(=O)c1noc(-c2cc(C(C)C)c(O)cc2O)c1-c1ccc(CN2CCOCC2)cc1 [Luminespib] (partner 0.01 µM)
In short: as §1

Avagacestat + Lapatinib = compound: NC(=O)[C@@H](CCC(F)(F)F)N(Cc1ccc(-c2ncon2)cc1F)S(=O)(=O)c1ccc(Cl)cc1 [Avagacestat] + CS(=O)(=O)CCNCc1ccc(-c2ccc3ncnc(Nc4ccc(OCc5cccc(F)c5)c(Cl)c4)c3c2)o1 [Lapatinib] (partner 2 µM)
In short: as §1

| Cell Line | relative viability (Avagacestat + Decitabine; first compound 0.08 µM) | relative viability (Avagacestat + Decitabine; first compound 0.253 µM) | relative viability (Avagacestat + Decitabine; first compound 0.8 µM) | relative viability (Avagacestat + Decitabine; first compound 2.53 µM) | relative viability (Avagacestat + Decitabine; first compound 8 µM) | relative viability (Avagacestat + Olaparib; first compound 0.08 µM) | relative viability (Avagacestat + Olaparib; first compound 0.253 µM) | relative viability (Avagacestat + Olaparib; first compound 0.8 µM) | relative viability (Avagacestat + Olaparib; first compound 2.53 µM) | relative viability (Avagacestat + Olaparib; first compound 8 µM) | relative viability (Avagacestat + Luminespib; first compound 0.08 µM) | relative viability (Avagacestat + Luminespib; first compound 0.253 µM) | relative viability (Avagacestat + Luminespib; first compound 0.8 µM) | relative viability (Avagacestat + Luminespib; first compound 2.53 µM) | relative viability (Avagacestat + Luminespib; first compound 8 µM) | relative viability (Avagacestat + Lapatinib; first compound 0.08 µM) | relative viability (Avagacestat + Lapatinib; first compound 0.253 µM) | relative viability (Avagacestat + Lapatinib; first compound 0.8 µM) | relative viability (Avagacestat + Lapatinib; first compound 2.53 µM) | relative viability (Avagacestat + Lapatinib; first compound 8 µM) |
| --- | --- | --- | --- | --- | --- | --- | --- | --- | --- | --- | --- | --- | --- | --- | --- | --- | --- | --- | --- | --- |
| NCI-H520 | 0.606 | 0.501 | 0.467 | 0.453 | 0.475 | 0.337 | 0.367 | 0.335 | 0.338 | 0.251 | 0.223 | 0.241 | 0.239 | 0.218 | 0.23 | 1.03 | 0.878 | 0.846 | 0.724 | 0.663 |
| NCI-H1793 | 0.504 | 0.532 | 0.508 | 0.472 | 0.496 | 1.04 | 0.601 | 1.11 | 0.827 | 0.616 | 0.145 | 0.176 | 0.157 | 0.198 | 0.172 | 1.13 | 0.648 | 1.08 | 0.627 | 0.769 |
| NCI-H2347 | 0.661 | 0.654 | 0.631 | 0.553 | 0.6 | 0.611 | 0.589 | 0.601 | 0.548 | 0.554 | 0.633 | 0.379 | 0.608 | 0.512 | 0.311 | 0.997 | 0.966 | 1.04 | 0.923 | 0.909 |
| HARA | 0.4 | 0.377 | 0.621 | 0.435 | 0.448 | 0.852 | 0.958 | 0.869 | 0.501 | 0.834 | 0.783 | 0.201 | 0.614 | 0.536 | 0.87 | 0.628 | 0.692 | 0.526 | 0.624 | 0.63 |
| NCI-H1915 | 0.259 | 0.266 | 0.283 | 0.237 | 0.265 | 0.264 | 0.28 | 0.257 | 0.249 | 0.227 | 1.07 | 1.18 | 1.01 | 0.745 | 0.669 | 0.965 | 1.12 | 1.12 | 0.988 | 0.949 |
| NCI-H1734 | 0.608 | 0.499 | 0.482 | 0.482 | 0.491 | 0.731 | 0.747 | 0.614 | 0.574 | 0.633 | 0.219 | 0.179 | 0.212 | 0.202 | 0.175 | 1.52 | 1.26 | 1.11 | 1.07 | 1.07 |
| NCI-H2342 | 0.738 | 0.686 | 0.706 | 0.695 | 0.742 | 0.441 | 0.384 | 0.486 | 0.458 | 0.451 | 0.742 | 0.703 | 0.648 | 0.709 | 0.663 | – | – | – | – | – |
| CAL-12T | – | – | – | – | – | 0.73 | 0.715 | 0.773 | 0.782 | 0.83 | 0.351 | 0.921 | 0.427 | 0.364 | 0.276 | 0.836 | 0.859 | 0.833 | 0.747 | 0.699 |
| PC-14 | 0.219 | 0.244 | 0.218 | 0.272 | 0.244 | 0.316 | 0.418 | 0.298 | 0.251 | 0.3 | 0.151 | 0.162 | 0.162 | – | 0.176 | 0.336 | 0.329 | 0.476 | 0.236 | 0.315 |
| NCI-H2087 | 0.3 | 0.279 | 0.374 | 0.25 | 0.257 | 0.806 | 0.613 | 0.884 | 0.62 | 0.543 | 0.161 | 0.173 | 0.276 | 0.264 | 0.143 | 1.33 | 1.04 | 1.05 | 1.25 | 1.06 |
| NCI-H1395 | 0.719 | 0.717 | 0.67 | 0.692 | 0.681 | 0.463 | 0.475 | 0.516 | 0.359 | 0.435 | 0.806 | 0.836 | 0.567 | 0.799 | 0.662 | 0.981 | 1.08 | 0.94 | 1.17 | 0.79 |
| NCI-H1648 | 0.469 | 0.392 | 0.265 | 0.363 | 0.37 | 0.678 | 0.806 | 0.516 | 0.437 | 0.534 | – | – | – | – | – | – | – | – | – | – |
| NCI-H596 | 1.09 | 1.01 | 1.28 | 0.906 | 0.928 | 0.741 | 0.62 | 0.804 | 0.613 | 0.573 | 1.19 | 0.876 | 1.35 | 0.924 | 0.756 | 1.09 | 1.03 | 1.15 | 1.11 | 0.944 |
| A549 | 0.331 | 0.254 | 0.296 | 0.31 | 0.259 | 0.465 | 0.301 | 0.622 | 0.265 | 0.34 | – | – | – | – | – | 1.58 | 0.977 | 1.09 | 0.939 | 1.11 |
| LC-2-ad | 0.837 | 0.839 | 0.867 | 0.833 | 0.776 | 0.853 | 0.794 | 0.826 | 0.783 | 0.679 | 1.18 | 1.05 | 1.18 | 0.948 | 1.14 | 1.04 | 1.16 | 1.03 | 0.996 | 0.867 |

Source: the supplement of paper PMC10307832
